Earlier results, collected in US8420131B2, “Composition for obesity treatment” (priority 2011, dated 2013).

Assays:
[1] = test system: human white preadipocytes
[2] = patients with PCOS
[3] = in vivo
[4] = in vivo; remark: listed apart in the source
[5] = animal study
[6] = humans
[7] = sixty depressed patients, added to imipramine therapy

For `COc1ccc2cc3[n+](cc2c1OC)CCc1cc2c(cc1-3)OCO2` [berberine], which adipogenesis [1] is on record?
Its adipogenesis is “inhibit adipogenesis”.

Which “inhibition of the effect of lipase” value (lipase) does the source give for `CC(/C=C/C=C(\C)C(=O)O)=C\C=C\C=C(C)\C=C\C=C(/C)C(=O)O` [crocetin] here?
Its value is “potently inhibit”.

And the “potency compared with orlistat” value (dose of 50 mg/kg versus orlistat at 10 mg/kg)?
Its value is “comparable”.

And the fat deposits (mice fed on a high fat diet)?
The fat deposits was “significantly reduced”.

With `CC(/C=C/C=C(\C)C(=O)O[C@@H]1O[C@H](CO[C@@H]2O[C@H](CO)[C@@H](O)[C@H](O)[C@H]2O)[C@@H](O)[C@H](O)[C@H]1O)=C\C=C\C=C(C)\C=C\C=C(/C)C(=O)O[C@@H]1O[C@H](CO[C@@H]2O[C@H](CO)[C@@H](O)[C@H](O)[C@H]2O)[C@@H](O)[C@H](O)[C@H]1O` [crocin] as the compound, how does the “inhibition of the effect of lipase” value (lipase) read?
The value was “potently inhibit”.

Which “action of insulin / insulin sensitivity” value [2] does the source give for `O[C@H]1[C@H](O)[C@@H](O)[C@H](O)[C@@H](O)[C@H]1O` [inositol] here?
The value was “increases the action of insulin”.

And the “symptoms of depressed patients” value [3]?
Its value is “significant improvement”.

What about the “decreasing the number of panic attacks, compared with fluvoxamine” value [4] of the same compound?
Its value is “superior”.

Which results are given for `[Mg+2]` [magnesium]?
effect compared with imipramine [5]: comparable; effectiveness in treating depression compared with imipramine [6]: as effective as imipramine

For `[Zn]` [zinc], which depression scores [7] is on record?
Its depression scores is “significantly reduced”.
